From patent US4680411A, “Pyrano[2,3-g]indoles useful as anti-ulcerous, anti-inflammatory and antalgic agent” (Societe de Recherches Industrielles, priority 1980, dated 1987)

How the values were obtained:
[1] = Inhibition of ulcer provoked by serotonin (Hashizume technique); assay type: in vivo, male Sprague-Dawley rats; conditions: serotonin 60 mg/kg sub-cutaneous
Method: ULCER PROVOKED BY SEROTONIN The technique used is the one described by Hashizume, in Arch. Int. Pharmacodyn. 236, 96-108, (1978). The experiment is carried out on 3 batches of male Sprague-Dawley rats. Each batch includes 20 animals. The first batch constitutes the controls, the second is treated with Carbenoxolone, the third is treated with the product to be tested. The animals are made to fast 24 hours before the experiment. At t=0, the product to be tested is administered by the IP route to the third batch, 100 mg/kg of Carbenoxolone are administered per os to the second batch. At t=+10 mins., a sub-cutaneous injection is made of serotonin at 60 mg/kg in the three batches. At t=+250 mins., the animals are sacrificed. The stomachs are removed and spread out and the ulcers are marked as follows: small ulcer +=1 average ulcer ++=3 large ulcer +++=9 The results relative to the inhibition of the ulcers provoked by serotonin are given in Table IV hereinbelow with the doses of the products tested.

[2] = Inhibition of ulcer provoked by aspirin; assay type: in vivo, male Wistar rats; conditions: Rattus norvegicus; rats; 100 mg/kg IP at t=0 and again at t=18 h; aspirin 192 mg/kg per os; sacrificed at t=22 h; read-out: Aspirine induced ulcer % inhibition
Method: The experiment is carried out on male Wistar rats weighing 180 to 200 g.
At t=0 the rats are made to fast and a first administration of the product to be tested, at a dose of 100 mg/kg, is made IP. At t=18 hours, 2 ml of an ulcer-forming suspension with 192 mg of aspirin/kg are administered per os then a second IP administration of the product to be tested, at a dose of 100 mg/kg, is made.
At t=22 hours, the animals are sacrificed and the ulcers are marked as follows: small punctiform ulcers: mark 1 more extensive ulcers: mark 3 very extensive or very deep ulcers: mark 9
(§1) Table III hereinbelow deals with the LD50 and with the inhibition of the ulcers caused by aspirin, the inhibition of the oedema provoked by carragenine and cramping (the products to be tested being, in the latter two cases, administered by the IP route at a dose equal to one tenth of the LD50 IP).

[3] = Toxicity, LD50 (DL50) I.P.; conditions: in vivo, ip
Description: The pharmacological tests carried out particularly with regard to toxicity, the ulcers provoked by aspirin and serotonin, and the anti-inflammatory and antalgic effects, are summarised hereinafter. The methods used are recalled hereinafter.
as §1

[4] = Inhibition of oedema provoked by carragenine (anti-inflammatory effect); assay type: in vivo; conditions: IP, dose equal to one tenth of the LD50 IP
Description: (§2) The techniques relative to the anti-inflammatory effects (oedema caused by carragenine) and antalgic effects (cramping) which were used are the conventional techniques described in the prior art.
as §1

[5] = Clinic: treatment of oedemas in man; assay type: in vivo
[6] = Inhibition of cramping (antalgic effect); assay type: in vivo; conditions: IP, dose equal to one tenth of the LD50 IP
Description: as §2, §1

[7] = Clinic: treatment of pain in man; assay type: in vivo
[8] = Clinic: treatment of ulcers in man; assay type: in vivo

SMILES	inhibition in vivo at 100 mg/kg [2]	LD50 ([3]; I.P.)	Carragheenine oedema % inhibition [4]	results in the treatment of oedemas [5]	Cramping % inhibition [6]	results in the treatment of ulcers [8]	further results
CC1(C)[C@@H](OC(=O)CCC(=O)O)CC[C@]2(C)[C@H]3C(=O)C=C4[C@@H]5C[C@@](C)(C(=O)O)CC[C@]5(C)CC[C@@]4(C)[C@]3(C)CC[C@@H]12 [Carbenoxolone, reference compound]							Serotonine ulcer % inhibition ([1]; Carbenoxolone 60 mg/kg IP as printed in table, method says 100 mg/kg per os): 64%
O=C(O)c1cc2ccc3c(c2[nH]1)CCCO3 [Example 4, 7,8,9-trihydro-pyrano[2,3-g]indole-2-carboxylic acid]	11%	600 mg/kg	35%	excellent results	36%		
O=C(O)c1cc2cc(Cl)c3c(c2[nH]1)CCCO3 [Example 5, 5-chloro-7,8,9-trihydro-pyrano[2,3-g]indole-2-carboxylic acid]	28%	300 mg/kg	30%	excellent results	35%		
COc1cc2cc(C(=O)O)[nH]c2c2c1OCCC2 [Example 6, 5-methoxy-7,8,9-trihydro-pyrano[2,3-g]indole-2-carboxylic acid]	23%	> 800 mg/kg			66%		results in the treatment of pain [7]: excellent results
c1cc2ccc3c(c2[nH]1)CCCO3 [Example 7, 7,8,9-trihydro-pyrano[2,3-g]indole]	46%	750 mg/kg			14%	excellent results	Serotonine ulcer % inhibition ([1]; 75 mg/kg IP): 64%
Clc1cc2cc[nH]c2c2c1OCCC2 [Example 8, 5-chloro-7,8,9-trihydro-pyrano[2,3-g]indole]	42.5%	900 mg/kg	33%		26%	excellent results	Serotonine ulcer % inhibition ([1]; 45 mg/kg IP): 75%
COc1cc2cc[nH]c2c2c1OCCC2 [Example 9, 5-methoxy-7,8,9-trihydro-pyrano[2,3-g]indole]	51%	650 mg/kg	39%	excellent results	41%		
CN(C)Cc1c[nH]c2c3c(ccc12)OCCC3 [Example 14, 3-(7,8,9-trihydro-pyrano[2,3-g]indolyl)-N,N-dimethylmethylamine]	47.5%		22%		67%	excellent results	LD50 [3]: 180 mg/kg
COc1cc2cc(C(=O)O)[nH]c2c2c1OCCC2=O [Example 19, 5-methoxy-9-oxo-7,8-dihydro-pyrano[2,3-g]indole-2-carboxylic acid]	49%	> 1000 mg/kg				excellent results	
COc1cc2cc[nH]c2c2c1OCCC2=O [Example 21, 5-methoxy-9-oxo-7,8-dihydro-pyrano[2,3-g]indole]	60%	600 mg/kg	49%		37%	excellent results	Serotonine ulcer % inhibition ([1]; 60 mg/kg IP): 87%
COc1cc2cc[nH]c2c2c1OCCC2=NO [Example 23]	40%		52%		51%	excellent results	Serotonine ulcer % inhibition ([1]; 92 mg/kg IP): 52%; DLo [3]: > 800 mg/kg
COc1cc2cc[nH]c2c2c1OCCC2O (stereo not shown) [Example 24]		1000 mg/kg	40%	excellent results	60%		
